These are literature values, as cited in patent US6485514B1 (priority 1997, dated 2002).

The subject of series [1] is human colon cancer xenografts.
For series [2] the following is noted: administered intravenously, clinical trials.
The conditions of series [3]: cremaphor vehicle, 6-hour IV infusion.
The conditions of series [4]: patients.
In series [5] the test system is drug-refractory ovarian cancer. Conditions: in vivo.

Like-named read-outs stand apart in the source and are kept apart here.

On to `CC[C@@]1(O)C(=O)OCc2c1cc1n(c2=O)Cc2cc3c(N)cccc3nc2-1` [9AC, 9-Amino-20(S)-Camptothecin], for which the “anticancer activity against human colon cancer xenografts” value in series [1] is given as “high anticancer activity”.

Turning to `CC[C@@]1(O)C(=O)OCc2c1cc1n(c2=O)Cc2cc3cc4c(cc3nc2-1)OCO4` [10,11 MD, 10,11-Methylendioxy-20(S)-Camptothecin], the “anticancer activity against human colon cancer xenografts” value in series [1] was “high anticancer activity”.

As for `CC[C@@](O)(C(=O)[O-])c1cc2n(c(=O)c1CO)Cc1cc3ccccc3nc1-2.[Na+]` [CPT Na+, Camptothecin Sodium Salt], the “clinical outcome (toxicity and potency)” value in series [2] (listed as sodium salt of CPT) was “high toxicity and low potency”; in series [2] (Sodium Salt), “ineffectiveness and the toxicity”.

With `CC(=O)O[C@H]1C(=O)[C@@]2(C)[C@H]([C@H](OC(=O)c3ccccc3)[C@]3(O)C[C@H](OC(=O)[C@H](O)[C@@H](NC(=O)c4ccccc4)c4ccccc4)C(C)=C1C3(C)C)[C@]1(OC(C)=O)CO[C@@H]1C[C@@H]2O` [taxol], the dose-limiting toxicity result in series [3] was “neurotoxicity and leucopenia were dose-limiting”; in series [4] (6-hour IV infusion), “Myelosuppression was dose-limiting”. For the same molecule, in series [4] (6-hour IV infusion every 21 days), the maximum tolerated dose is reported as 275 mg/m^2. In addition, in series [5], the “activity against drug-refractory ovarian cancer” value was “active agent”.
